From ChEMBL document CHEMBL4602682, “Ikoamide, an Antimalarial Lipopeptide from an Okeania sp. Marine Cyanobacterium” (J Nat Prod, 2020)

Experiments:
HeLa = test: Cytotoxicity against human HeLa cells at 10 uM incubated for 72 hrs by MTT assay; type: cell-based
HL-60 [1] = test: Cytotoxicity against human HL60 cells at 10 uM incubated for 72 hrs by MTT assay; type: cell-based; conditions: hl-60, 72 h
Plasmodium falciparum = test: Antiplasmodial activity against asexual erythrocytic stage of Plasmodium falciparum 3D7 assessed as reduction in parasite growth after 72 hrs by LDH assay; type: functional, organism-based; conditions: 3D7, 72 h
HL-60 [2] = test: Cytotoxicity against human HL60 cells incubated for 72 hrs by MTT assay; type: cell-based; conditions: HL-60, 72 h

## CCC[C@H](C[C@@H](CC(=O)N(C)[C@@H](C(=O)N[C@H](CO)C(=O)N[C@H](CC(C)C)C(=O)N(C)[C@@H](CC(C)C)C(=O)N[C@H](C(=O)N(C)[C@H](C(=O)N(C)[C@@H](CCC(N)=O)C(=O)N(C)[C@@H](Cc1ccc(OC)cc1)C(=O)OC)[C@@H](C)CC)[C@@H](C)O)[C@@H](C)CC)OC)OC
HeLa
  Activity: Non-Toxic
HL-60 [1]
  Activity: Non-Toxic
Plasmodium falciparum
  IC50: 140 nM

## COc1cccc2c1C(=O)c1c(O)c3c(c(O)c1C2=O)C[C@@](O)(C(=O)CO)C[C@@H]3O[C@H]1C[C@H](N)[C@H](O)[C@H](C)O1 [DOXORUBICIN]
HL-60 [2]
  IC50: 46 nM
